Experimental data as given in patent publication US20260356879A1, “CELASTROL DERIVATIVES” (Celloram Inc., priority 2022, published 2026).

Legend:
[1] = test system: THP-1 cells; test: THP-1 cell viability (inflammasome-induced pyroptosis), live/dead staining and flow cytometry; assay type: cell-based, human; details: THP-1, LPS and Nigericin, 0 μM to 10 μM; FIG. 7A
Source text: (§1) Pyroptosis, a pro-inflammatory form of cell death, is triggered by the activation of NLRP3 inflammasome components (GSDMD and Caspase-1), leading to the release of pro-inflammatory cytokines IL-1β and IL-18, as well as damage-associated molecular patterns (DAMPs). This process elicits a cascade of inflammatory responses, which can persist if dysregulated in affected tissues. Given the significant inhibitory potential of CLM-022 against NLRP3 inflammasome and IL-1β secretion, it was proposed that CLM-022 could effectively enhance cell viability by inhibiting pyroptosis in the context of inflammation and inflammasome activation. This example illustrates a comparative study of the abilities of CLM-022 and MCC950 to protect THP-1 cells from inflammasome-induced pyroptosis.
(§2) After LPS and Nigericin treatment, THP-1 cells were treated with either CLM-022 or MCC950 over a dosage range of 0 μM to 10 μM and cell viability was determined by impermeant live/dead staining dye and flow cytometric analysis. Additionally, NLRP3 inflammasome-induced cytotoxicity was investigated by measuring the level of LDH in the conditioned media after the CLM-022 and MCC950 treatments. Further, Western blotting of samples from the THP-1 cell viability assays was carried out to determine levels of the pyroptosis-mediating molecules, GSDMD and Caspase-1.

[2] = biological target: T1, NEK7 (Homo sapiens, UniProt Q8TDX7); test: DARTS assay: protection of NEK7 from Pronase degradation in THP-1 lysates; assay type: binding; details: 10 μM, FIG. 6C
T1 construct: DARTS with Pronase, immunoblot
Source text: The NLRP3 inflammasome is composed of a multi-protein complex and the exact molecular mode of NLRP3 activation remains unclear. Currently, there are no NLRP3 inflammasome inhibitors in the clinic, and it is important to identify the mechanism of action and molecular target of potential small molecules that interact with NLRP3. This example illustrates a study of the ability of CLM-022 to protect the NLRP3 molecule as determined using a drug affinity responsive target stability (DARTS) assay. DARTS assay is a robust method to identify small molecule target protein. In case of a drug-target interaction, the small molecule protects target protein from degradation by proteinase (Pronase) whereas free-proteins may be degraded very efficiently in the given condition.
The DARTS assay was performed using THP-1 lysates pretreated with LPS and Nigericin to induce activation of NLRP3 inflammasome. THP-1 cells (1×10^5/mL) were treated with LPS (100 ng/ml) for 3 hours, followed by 10 μM Nigericin for an additional 30 minutes. Pronase (50-500 ng/μg of protein) was added to the lysate with CLM-022 (10 μM) or MCC950 (10 μM) for the indicated time (10-15 min) at room temperature. The protein components of NLRP3 inflammasome were visualized using antibody recognizing NLRP3-Natch domain (FIG. 6A), NLRP-PYD domain (FIG. 6B), or NEK7 protein (FIG. 6C). […]

[3] = test system: GSDMD and Caspase-1; test: GSDMD and Caspase-1 cleavage in THP-1 cells (western blot); assay type: cell-based; details: Homo sapiens; THP-1, western blot; FIG. 7C; read-out: concentration inhibiting GSDMD and Caspase-1 cleavage
Source text: as §1, §2

[4] = test system: NLRP3 inflammasome; test: IL-1β secretion in THP-1 macrophages, LPS + Nigericin; assay type: cell-based; details: human THP-1 macrophages, FIG. 5C
Protocol: This example illustrates a comparative study of CLM-022 and MCC950 in inhibiting NLRP3 inflammasome activity in mouse and human macrophages.
To confirm the inhibitory effect of CLM-022 in human macrophages, THP-1 cells, a human leukemia monocytic cell line, were differentiated into macrophages using phorbol 12-myristate-13-acetate (PMA, 100 ng/ml) treatment for one day. The THP-1 macrophages were then treated with LPS (100 ng/ml) for 3 hours to induce the expression of inflammatory genes. Subsequently, the THP-1 cells were treated with CLM-022 or MCC950 in a dose range of 0-10 μM for 30 minutes. Then, to fully activate NLRP3-dependent inflammasome activity, Nigericin (10 μM) was added to the THP-1 cells for an additional 60 min.

[5] = test system: TNF-α secretion; test: Secreted TNF-α in conditioned media of BMDC (ELISA), LPS+ATP or LPS+Nigericin; assay type: cell-based; details: 63-500 nM, FIG. 2C
Protocol: FIG. 2A depicts western blot images showing the relative NLRP3 inflammasome activity of the compounds 22 (CLM-022) and 1 (CLM-001) by detecting the level of cellular ASC complex and the mature form of IL-1β (15 kDa) in a conditioned media of BMDCs treated with LPS (100 ng/ml) for 3 hours and then the compound at 50 nM, 100 nM, and 500 nM concentration for 30 min, followed by ATP or Nigericin. ASC monomer and β-Actin proteins were used as controls. FIG. 2B depict plots of results showing secreted IL-1β levels measured by ELISA using conditioned media of BMDC treated with the compound 22 or compound 1 at 63 nM, 125 nM, 250 nM, and 500 nM, under NLRP3 inflammasome activation induced either by LPS+ATP or LPS+Nigericin. FIG. 2C depict plots of results showing secreted TNF-α levels measured by ELISA using conditioned media of BMDC treated with the compound 22 or compound 1 at 63 nM, 125 nM, 250 nM, and 500 nM, under NLRP3 inflammasome activation induced either by LPS+ATP or LPS+Nigericin.
3. The secreted form of TNF-α, a NLRP3 inflammasome independent cytokine, induced by LPS+ATP or LPS+Nigericin were measured by ELISA assay using the conditioned media of BMDC treated with compound 1 (CLM-1) or compound 22 (CLM-022) at concentrations of 63, 125, 250, 500 nM under NLRP3 inflammasome activation induced either by LPS+ATP or LPS+Nigericin.

T1 sequence (Q8TDX7 whole entry): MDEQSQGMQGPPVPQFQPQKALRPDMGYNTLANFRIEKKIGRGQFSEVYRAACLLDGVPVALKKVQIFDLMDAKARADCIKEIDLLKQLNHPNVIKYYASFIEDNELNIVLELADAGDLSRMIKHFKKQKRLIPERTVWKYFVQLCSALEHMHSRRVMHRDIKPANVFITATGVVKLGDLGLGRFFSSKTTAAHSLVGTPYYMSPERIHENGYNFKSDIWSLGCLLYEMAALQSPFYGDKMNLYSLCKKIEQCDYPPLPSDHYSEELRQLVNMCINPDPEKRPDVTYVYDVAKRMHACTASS

## CC1=C(O)C(=O)C=C2C1=CC=C1[C@@]2(C)CC[C@@]2(C)[C@@H]3C[C@](C)(N(C)C(=O)C(=O)N(C)C)CC[C@]3(C)CC[C@]12C [Compound 22, N′-[(2R,4aS,6aR,6aS,14aS,14bR)-10-hydroxy-2,4a,6a,6a,9,14a-hexamethyl-11-oxo-1,3,4,5,6,13,14,14b-octahydropicen-2-yl]-N,N,N′-trimethyl-oxamide]
[1]
  increase in cell viability: up to 60%
[2]
  protection of NEK7 from Pronase-induced degradation: did not protect NEK7 from Pronase-induced degradation
[3]
  minimal effective concentration: ≤ 0.1 µM
[4]; LPS (100 ng/ml) + Nigericin (10 μM), 0-10 μM, read-out: IC50 for inhibition of IL-1β secretion
  IC50: 159 nM
[4]; LPS + Nigericin
  inhibition of IL-1β secretion: robustly inhibited IL-1β secretion
[5]
  suppression of TNF-α secretion: no significant suppressive effect on TNF-α inflammatory cytokine secretion
